Source: patent US8575091B1, “Amylin analogues and pharmaceutical compositions thereof” (Novo Nordisk A/S, priority 2012, dated 2013)
Numbered stars: 1 amine (or outer) side, 2 acyl side, 3 side chain; on linkers, the order of the positions; unused ones are H or OH. Bridge positions count the residues as written; N and C are the ends. Side chains are listed from the residue outwards. Peptide text beside a SMILES is read from it. * marks the point of attachment. C20 diacid = O=C(O)CCCCCCCCCCCCCCCCCCC(=O)*; γGlu = O=C(O)[C@H](CCC(=O)[*:2])N[*:1]; AEEA = NCCOCCOCC(=O)O

Legend:
[1] = molecular target: T1, human amylin receptor (Homo sapiens, UniProt O60896+P30988); assay: Assay (V) binding to the human amylin receptor (SPA, 125I-rat amylin)
T1 construct: expressed in transfected cells
T1 sequence (P30988 25-474): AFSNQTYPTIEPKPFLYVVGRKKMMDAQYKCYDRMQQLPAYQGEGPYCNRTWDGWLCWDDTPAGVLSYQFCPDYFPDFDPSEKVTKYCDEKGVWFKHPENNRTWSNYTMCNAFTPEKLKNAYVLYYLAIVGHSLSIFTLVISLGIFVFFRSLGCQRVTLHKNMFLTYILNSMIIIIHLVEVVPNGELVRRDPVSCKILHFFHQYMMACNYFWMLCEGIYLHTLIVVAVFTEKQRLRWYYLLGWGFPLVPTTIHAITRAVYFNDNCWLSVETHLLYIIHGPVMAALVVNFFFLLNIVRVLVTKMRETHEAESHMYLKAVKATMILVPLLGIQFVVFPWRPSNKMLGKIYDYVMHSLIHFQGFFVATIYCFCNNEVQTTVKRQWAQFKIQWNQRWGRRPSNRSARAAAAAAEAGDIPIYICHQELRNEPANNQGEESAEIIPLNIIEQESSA
T1 sequence (O60896 24-148 partner): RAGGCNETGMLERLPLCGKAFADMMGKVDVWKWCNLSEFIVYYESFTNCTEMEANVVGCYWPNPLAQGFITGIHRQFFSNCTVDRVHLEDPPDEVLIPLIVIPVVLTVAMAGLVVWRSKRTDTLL
Procedure: The binding assay was performed using scintillation proximity assay (SPA) beads (RPNQ0001) from PerkinElmer and cell membranes from the Amylin 3(a)/CRE-luc cells (as described in Assay (II)) were used. Membranes were prepared in the following way; the cells were rinsed with PBS and incubated with Versene for approximately 5 min before harvesting. The cells were flushed with PBS and the cell-suspension was centrifuged for 5 min at 1000 rpm. […] The resulting pellet was resuspended in buffer 2 and protein concentration was measured (BCA protein Assay, Pierce). The homogenate was kept cold during the whole procedure. The membranes were kept at −80° C. until use. The assay was performed in a 384 well Optiplate (PerkinElmer) in a total volume of 40 ul. Membranes were mixed with SPA beads. Final concentration of membranes 35 ng/μL final and SPA beads was 0.05 mg/well. Test-compounds were dissolved in DMSO and further diluted in assay buffer (50 mM Hepes, pH 7.4, 1 mM CaCl2, 5 mM MgCl2, 0.1% OA and 0.02% Tween20). […] Samples were analyzed on TopCounter™ (Packard). The IC50 was calculated using (one site binding competition analysis) GraphPad Prism5 as a measure of receptor affinity.

[2] = molecular target: T2, human amylin receptor (amylin 3(a) receptor: human calcitonin receptor + RAMP-3) (Homo sapiens, UniProt O60896+P30988); assay: Assay (II)a functional assay, human amylin receptor (CRE luciferase, BHK cells); assay type: cell-based
T2 construct: expressed in transfected cells
T2 sequence (P30988 25-474): T1 sequence (P30988 25-474)
T2 sequence (O60896 24-148 partner): T1 sequence (O60896 24-148 partner)
Procedure: Assay (II)—Functional Assays
Consequently, transcription is activated by promoters containing multiple copies of the cAMP response element (CRE).
The cell line was further transfected with RAMP-3, using standard methods.
After incubation overnight at 37° C. and 5% CO2, the growth medium was replaced by 50 μl/well assay medium (DMEM (without phenol red), Glutamax™, 10% FBS, and 10 mM Hepes, pH 7.4). Further, 50 μl/well of standard or sample in assay buffer were added. After 3 hours incubation at 37° C. and 5% CO2, the assay medium with standard or sample were removed and replaced by 100 μl/well PBS. Further, 100 μl/well LucLite™ was added. The plates were sealed and incubated at room temperature for 30 minutes. Finally, luminescence was measured on a TopCounter (Packard) in SPC (single photon counting) mode.

[3] = Table 7b, human calcitonin receptor binding IC50 divided by human amylin receptor binding IC50
[4] = Table 7c, human calcitonin receptor binding IC50 divided by human amylin receptor binding IC50
[5] = human binding ratio, included for comparison
[6] = Table 6, human functional selectivity (hCTR EC50 / hAmylin-R EC50)
[7] = Table 6a, human functional selectivity (hCTR EC50 / hAmylin-R EC50), at least 5
[8] = Table 6j, hCTR funct. EC50 / hAmylin-R funct. EC50
[9] = Table 6k, hCTR funct. EC50 / hAmylin-R funct. EC50

Structure (SMILES): CC[C@H](C)[C@H](NC(=O)[C@H](C)NC(=O)CNC(=O)[C@H](Cc1ccccc1)NC(=O)[C@H](CC(N)=O)NC(=O)[C@@H]1CCCN1C(=O)[C@H](CO)NC(=O)[C@H](CO)NC(=O)[C@H](Cc1c[nH]cn1)NC(=O)[C@H](CCCNC(=N)N)NC(=O)[C@H](CC(C)C)NC(=O)[C@H](Cc1ccccc1)NC(=O)[C@H](Cc1c[nH]cn1)NC(=O)[C@H](C)NC(=O)[C@H](CC(C)C)NC(=O)[C@H](CCCNC(=N)N)NC(=O)[C@H](CCC(N)=O)NC(=O)[C@@H](NC(=O)[C@H](C)NC(=O)[C@@H]1CSSC[C@H](NC(=O)[C@@H](N)CCCCNC(=O)CC[C@H](NC(=O)CCCCCCCCCCCCCCCCCCC(=O)O)C(=O)O)C(=O)N[C@@H](CC(N)=O)C(=O)N[C@@H]([C@@H](C)O)C(=O)N[C@@H](C)C(=O)N[C@@H]([C@@H](C)O)C(=O)N1)[C@@H](C)O)C(=O)N1CCC[C@H]1C(=O)N[C@@H](CO)C(=O)N[C@@H](CO)C(=O)N[C@H](C(=O)N1CCC[C@H]1C(=O)N[C@H](C(=O)NCC(=O)N[C@@H](CO)C(=O)N[C@@H](CC(N)=O)C(=O)N[C@H](C(=O)N[C@@H](Cc1ccc(O)cc1)C(N)=O)[C@@H](C)O)C(C)C)[C@@H](C)O [Example 62] (H-K([γGlu-C20 diacid])CNTATCATQRLAHFLRHSSPNFGAIPSSTPVGSNTY-NH2; disulfide 2-7; N-terminus assumed)
- Ratio hCT/hAmylin binding [1, 3]: 63.0
- Ratio hCT/hAmylin binding [1, 4]: 63.0
- Ratio hCT/hAmylin binding [1, 5]: 63.0

Structure (SMILES): CC[C@H](C)[C@H](NC(=O)[C@H](C)NC(=O)CNC(=O)[C@H](Cc1ccccc1)NC(=O)[C@H](CC(N)=O)NC(=O)[C@@H]1CCCN1C(=O)[C@H](CO)NC(=O)[C@H](CO)NC(=O)[C@H](Cc1c[nH]cn1)NC(=O)[C@H](CCCNC(=N)N)NC(=O)[C@H](CC(C)C)NC(=O)[C@H](Cc1ccccc1)NC(=O)[C@H](CC(N)=O)NC(=O)[C@H](C)NC(=O)[C@H](CC(C)C)NC(=O)[C@H](CCCNC(=N)N)NC(=O)[C@H](CCC(N)=O)NC(=O)[C@@H](NC(=O)[C@H](C)NC(=O)[C@@H]1CSSC[C@H](NC(=O)[C@@H](N)CCCCNC(=O)COCCOCCNC(=O)CC[C@H](NC(=O)CCCCCCCCCCCCCCCCCCC(=O)O)C(=O)O)C(=O)N[C@@H](CC(N)=O)C(=O)N[C@@H]([C@@H](C)O)C(=O)N[C@@H](C)C(=O)N[C@@H]([C@@H](C)O)C(=O)N1)[C@@H](C)O)C(=O)N1CCC[C@H]1C(=O)N[C@@H](CO)C(=O)N[C@@H](CO)C(=O)N[C@H](C(=O)N[C@@H](CC(N)=O)C(=O)N[C@H](C(=O)NCC(=O)N[C@@H](Cc1c[nH]cn1)C(=O)N[C@@H](CC(N)=O)C(=O)N[C@H](C(=O)N[C@@H](Cc1ccc(O)cc1)C(N)=O)[C@@H](C)O)C(C)C)[C@@H](C)O [Example 76] (H-K([AEEA-γGlu-C20 diacid])CNTATCATQRLANFLRHSSPNFGAIPSSTNVGHNTY-NH2; disulfide 2-7 (inferred); N-terminus and C-terminus assumed)
- Ratio hCT/hAmylin binding [1, 3]: 80.0
- Ratio hCT/hAmylin binding [1, 4]: 80.0
- Ratio hCT/hAmylin binding [1, 5]: 80.0

Structure (SMILES): CC[C@H](C)[C@H](NC(=O)[C@H](C)NC(=O)CNC(=O)[C@H](Cc1ccccc1)NC(=O)[C@H](CC(N)=O)NC(=O)[C@@H]1CCCN1C(=O)[C@H](CO)NC(=O)[C@H](CO)NC(=O)[C@H](Cc1c[nH]cn1)NC(=O)[C@H](CCCNC(=N)N)NC(=O)[C@H](CC(C)C)NC(=O)[C@H](Cc1ccccc1)NC(=O)[C@H](CC(N)=O)NC(=O)[C@H](C)NC(=O)[C@H](CC(C)C)NC(=O)[C@H](CCCNC(=N)N)NC(=O)[C@H](CCC(N)=O)NC(=O)[C@@H](NC(=O)[C@H](C)NC(=O)[C@@H]1CSSC[C@H](NC(=O)[C@@H](N)CCCCNC(=O)CC[C@H](NC(=O)CCCCCCCCCCCCCCCCCCC(=O)O)C(=O)O)C(=O)N[C@@H](CC(N)=O)C(=O)N[C@@H]([C@@H](C)O)C(=O)N[C@@H](C)C(=O)N[C@@H]([C@@H](C)O)C(=O)N1)[C@@H](C)O)C(=O)N1CCC[C@H]1C(=O)N[C@@H](CO)C(=O)N[C@@H](CO)C(=O)N[C@H](C(=O)N[C@@H](CC(N)=O)C(=O)N[C@H](C(=O)NCC(=O)N[C@@H](CO)C(=O)N[C@@H](CC(N)=O)C(=O)N[C@H](C(=O)N[C@@H](Cc1ccc(O)cc1)C(N)=O)[C@@H](C)O)C(C)C)[C@@H](C)O [Example 48]
- Ratio hCT/hAmylin funct. [2, 6]: 17.0
- Ratio hCT/hAmylin funct. [2, 7]: 17.0
- Ratio hCT/hAmylin funct. [2, 8]: 17.0
- Ratio hCT/hAmylin funct. [2, 9]: 17.0

Structure (SMILES): CC[C@H](C)[C@H](NC(=O)[C@H](C)NC(=O)CNC(=O)[C@H](Cc1ccccc1)NC(=O)[C@H](CC(N)=O)NC(=O)[C@@H]1CCCN1C(=O)[C@H](CO)NC(=O)[C@H](CO)NC(=O)[C@H](Cc1c[nH]cn1)NC(=O)[C@H](CCCNC(=N)N)NC(=O)[C@H](CC(C)C)NC(=O)[C@H](Cc1ccccc1)NC(=O)[C@H](CC(N)=O)NC(=O)[C@H](C)NC(=O)[C@H](CC(C)C)NC(=O)[C@H](CCCNC(=N)N)NC(=O)[C@H](CCC(N)=O)NC(=O)[C@@H](NC(=O)[C@H](C)NC(=O)[C@@H]1CSSC[C@H](NC(=O)[C@H](CCCCN)NC(=O)CC[C@H](NC(=O)CCCCCCCCCCCCCCCCCCC(=O)O)C(=O)O)C(=O)N[C@@H](CC(N)=O)C(=O)N[C@@H]([C@@H](C)O)C(=O)N[C@@H](C)C(=O)N[C@@H]([C@@H](C)O)C(=O)N1)[C@@H](C)O)C(=O)N1CCC[C@H]1C(=O)N[C@@H](CO)C(=O)N[C@@H](CO)C(=O)N[C@H](C(=O)N1CCC[C@H]1C(=O)N[C@H](C(=O)NCC(=O)N[C@@H](CO)C(=O)N[C@@H](CCC(=O)O)C(=O)N[C@H](C(=O)N[C@@H](Cc1ccc(O)cc1)C(N)=O)[C@@H](C)O)C(C)C)[C@@H](C)O [Example 28] ({C20 diacid-γGlu}-KCNTATCATQRLANFLRHSSPNFGAIPSSTPVGSETY-NH2; disulfide 2-7)
- Ratio hCT/hAmylin funct. [2, 6]: 9.2
- Ratio hCT/hAmylin funct. [2, 7]: 9.2
- Ratio hCT/hAmylin funct. [2, 8]: 9.2
- Ratio hCT/hAmylin funct. [2, 9]: 9.2

Structure (SMILES): CC[C@H](C)[C@H](NC(=O)[C@H](C)NC(=O)CNC(=O)[C@H](Cc1ccccc1)NC(=O)[C@H](CC(N)=O)NC(=O)[C@@H]1CCCN1C(=O)[C@H](CO)NC(=O)[C@H](CO)NC(=O)[C@H](Cc1c[nH]cn1)NC(=O)[C@H](CCCNC(=N)N)NC(=O)[C@H](CC(C)C)NC(=O)[C@H](Cc1ccccc1)NC(=O)[C@H](C)NC(=O)[C@H](C)NC(=O)[C@H](CC(C)C)NC(=O)[C@H](CCCNC(=N)N)NC(=O)[C@H](CCC(N)=O)NC(=O)[C@@H](NC(=O)[C@H](C)NC(=O)[C@@H]1CSSC[C@H](NC(=O)[C@H](CCCNC(=N)N)NC(=O)CNC(=O)CC[C@H](NC(=O)CCCCCCCCCCCCCCCCCCC(=O)O)C(=O)O)C(=O)N[C@@H](CC(N)=O)C(=O)N[C@@H]([C@@H](C)O)C(=O)N[C@@H](C)C(=O)N[C@@H]([C@@H](C)O)C(=O)N1)[C@@H](C)O)C(=O)N1CCC[C@H]1C(=O)N[C@@H](CO)C(=O)N[C@@H](CO)C(=O)N[C@H](C(=O)N[C@@H](CC(N)=O)C(=O)N[C@H](C(=O)NCC(=O)N[C@@H](Cc1c[nH]cn1)C(=O)N[C@@H](CC(N)=O)C(=O)N[C@H](C(=O)N[C@@H](Cc1ccc(O)cc1)C(N)=O)[C@@H](C)O)C(C)C)[C@@H](C)O [Example 101] ({C20 diacid-γGlu}-GRCNTATCATQRLAAFLRHSSPNFGAIPSSTNVGHNTY-NH2; disulfide 3-8 (inferred); C-terminus assumed)
- Ratio hCT/hAmylin funct. [2, 6]: 4.9
